According to ChEMBL document CHEMBL3399966, “Isosteric replacements of the carboxylic acid of drug candidate VX-787: Effect of charge on antiviral potency and kinase activity of azaindole-based influenza PB2 inhibitors” (Bioorg Med Chem Lett, 2015):

Assays:
[1] = biological target: Tyrosine-protein kinase JAK2 (Homo sapiens, UniProt O60674); experiment: Inhibition of JAK2 (unknown origin)
[2] = biological target: Hepatocyte growth factor receptor (Homo sapiens, UniProt P08581); experiment: Inhibition of MET (unknown origin)
[3] = biological target: T1, Phosphatidylinositol 4,5-bisphosphate 3-kinase catalytic subunit delta isoform (Homo sapiens, UniProt O00329); experiment: Inhibition of PI3Kdelta (unknown origin)
T1 sequence (O00329 whole entry): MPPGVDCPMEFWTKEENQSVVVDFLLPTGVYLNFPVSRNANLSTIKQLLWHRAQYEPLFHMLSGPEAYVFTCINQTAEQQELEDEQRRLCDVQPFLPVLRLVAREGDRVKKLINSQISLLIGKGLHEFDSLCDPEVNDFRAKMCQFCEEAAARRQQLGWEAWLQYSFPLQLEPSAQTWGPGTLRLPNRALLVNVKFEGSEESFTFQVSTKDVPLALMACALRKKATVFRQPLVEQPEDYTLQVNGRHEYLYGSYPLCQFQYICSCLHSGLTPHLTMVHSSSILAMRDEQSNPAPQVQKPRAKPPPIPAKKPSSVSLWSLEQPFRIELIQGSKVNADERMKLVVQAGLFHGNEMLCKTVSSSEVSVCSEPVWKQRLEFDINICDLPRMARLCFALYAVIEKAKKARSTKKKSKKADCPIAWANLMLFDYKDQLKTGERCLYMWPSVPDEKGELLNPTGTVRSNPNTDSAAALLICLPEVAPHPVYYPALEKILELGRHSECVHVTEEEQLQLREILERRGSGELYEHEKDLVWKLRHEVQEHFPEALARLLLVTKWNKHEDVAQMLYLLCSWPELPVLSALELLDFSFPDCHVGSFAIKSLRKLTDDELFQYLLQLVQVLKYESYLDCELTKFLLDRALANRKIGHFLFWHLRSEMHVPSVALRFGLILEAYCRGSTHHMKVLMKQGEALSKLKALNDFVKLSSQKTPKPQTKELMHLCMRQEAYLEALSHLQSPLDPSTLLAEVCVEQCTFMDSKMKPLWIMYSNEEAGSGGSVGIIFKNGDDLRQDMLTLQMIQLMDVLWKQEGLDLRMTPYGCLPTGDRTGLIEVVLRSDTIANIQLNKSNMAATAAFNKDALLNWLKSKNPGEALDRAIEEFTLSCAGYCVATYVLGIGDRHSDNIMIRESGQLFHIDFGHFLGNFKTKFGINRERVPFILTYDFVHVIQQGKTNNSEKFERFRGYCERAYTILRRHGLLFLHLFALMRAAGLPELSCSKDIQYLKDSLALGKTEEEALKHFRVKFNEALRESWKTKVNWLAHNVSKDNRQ

[4] = biological target: Phosphatidylinositol 4,5-bisphosphate 3-kinase catalytic subunit beta isoform (Homo sapiens, UniProt P42338); experiment: Inhibition of PI3Kbeta (unknown origin)
[5] = biological target: Cyclin-dependent kinase 2 (Homo sapiens, UniProt P24941); experiment: Inhibition of CDK2 (unknown origin)
[6] = biological target: Phosphatidylinositol 4,5-bisphosphate 3-kinase catalytic subunit gamma isoform (Homo sapiens, UniProt P48736); experiment: Inhibition of PI3Kgamma (unknown origin)
[7] = biological target: Proto-oncogene tyrosine-protein kinase Src (Homo sapiens, UniProt P12931); experiment: Inhibition of SRC (unknown origin)
[8] = biological target: Serine/threonine-protein kinase PLK1 (Homo sapiens, UniProt P53350); experiment: Inhibition of PLK (unknown origin)
[9] = biological target: cAMP-dependent protein kinase catalytic subunit alpha (Homo sapiens, UniProt P17612); experiment: Inhibition of PKAa (unknown origin)
[10] = biological target: Tyrosine-protein kinase SYK (Homo sapiens, UniProt P43405); experiment: Inhibition of SYK (unknown origin)
Influenza A virus [11] = experiment: Antiviral activity against influenza A virus A/PR/8/34 strain incubated with MDCK cells assessed as reduction of viral RNA level equal to 1% of control level after 72 hrs by branched DNA assay; type: functional, organism-based; conditions: A/Puerto Rico/8/1934(H1N1)
Influenza A virus [12] = experiment: Antiviral activity against Influenza A virus A/PR/8/34 strain incubated with MDCK cells assessed as cell protection after 72 hrs by phenotypic cell protection assay; type: functional, organism-based; conditions: A/Puerto Rico/8/1934(H1N1)
[13] = biological target: Rho-associated protein kinase (Homo sapiens, UniProt O75116+Q13464); experiment: Inhibition of ROCK (unknown origin); type: protein-complex assay
[14] = biological target: Vascular endothelial growth factor receptor 2 (Homo sapiens, UniProt P35968); experiment: Inhibition of KDR (unknown origin)
[15] = biological target: T2, Receptor-type tyrosine-protein kinase FLT3 (Homo sapiens, UniProt P36888); experiment: Inhibition of FLT3 (unknown origin)
T2 sequence (P36888 whole entry): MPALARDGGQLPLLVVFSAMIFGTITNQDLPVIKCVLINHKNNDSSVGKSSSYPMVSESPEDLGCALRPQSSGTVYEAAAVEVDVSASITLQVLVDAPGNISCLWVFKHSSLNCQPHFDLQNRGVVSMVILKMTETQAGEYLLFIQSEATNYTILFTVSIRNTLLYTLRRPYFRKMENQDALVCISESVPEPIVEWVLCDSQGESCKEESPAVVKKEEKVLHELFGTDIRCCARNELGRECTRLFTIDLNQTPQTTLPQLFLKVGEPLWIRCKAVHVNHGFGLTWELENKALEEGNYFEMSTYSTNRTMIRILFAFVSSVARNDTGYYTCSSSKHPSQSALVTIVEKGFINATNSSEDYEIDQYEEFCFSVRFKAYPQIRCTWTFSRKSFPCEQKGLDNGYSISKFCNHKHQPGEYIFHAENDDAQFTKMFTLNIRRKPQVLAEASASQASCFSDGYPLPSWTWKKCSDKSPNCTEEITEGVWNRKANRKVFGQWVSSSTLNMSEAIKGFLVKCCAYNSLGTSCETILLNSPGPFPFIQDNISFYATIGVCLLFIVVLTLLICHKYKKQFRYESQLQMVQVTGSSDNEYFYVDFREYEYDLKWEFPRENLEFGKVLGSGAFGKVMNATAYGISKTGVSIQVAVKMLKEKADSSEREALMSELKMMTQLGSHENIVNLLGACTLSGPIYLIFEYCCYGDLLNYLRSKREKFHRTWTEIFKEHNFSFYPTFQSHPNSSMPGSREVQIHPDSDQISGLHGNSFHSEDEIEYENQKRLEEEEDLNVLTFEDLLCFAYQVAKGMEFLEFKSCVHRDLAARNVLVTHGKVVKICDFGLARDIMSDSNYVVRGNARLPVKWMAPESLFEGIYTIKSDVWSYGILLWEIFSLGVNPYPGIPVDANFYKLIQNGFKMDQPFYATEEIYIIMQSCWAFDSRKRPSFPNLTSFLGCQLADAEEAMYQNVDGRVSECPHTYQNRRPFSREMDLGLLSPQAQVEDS

[16] = biological target: Glycogen synthase kinase-3 (Homo sapiens, UniProt P49840+P49841); experiment: Inhibition of GSK3 (unknown origin); type: protein assay
[17] = biological target: T3, Interleukin-1 receptor-associated kinase 4 (Homo sapiens, UniProt Q9NWZ3); experiment: Inhibition of IRAK4 (unknown origin)
T3 sequence (Q9NWZ3 whole entry): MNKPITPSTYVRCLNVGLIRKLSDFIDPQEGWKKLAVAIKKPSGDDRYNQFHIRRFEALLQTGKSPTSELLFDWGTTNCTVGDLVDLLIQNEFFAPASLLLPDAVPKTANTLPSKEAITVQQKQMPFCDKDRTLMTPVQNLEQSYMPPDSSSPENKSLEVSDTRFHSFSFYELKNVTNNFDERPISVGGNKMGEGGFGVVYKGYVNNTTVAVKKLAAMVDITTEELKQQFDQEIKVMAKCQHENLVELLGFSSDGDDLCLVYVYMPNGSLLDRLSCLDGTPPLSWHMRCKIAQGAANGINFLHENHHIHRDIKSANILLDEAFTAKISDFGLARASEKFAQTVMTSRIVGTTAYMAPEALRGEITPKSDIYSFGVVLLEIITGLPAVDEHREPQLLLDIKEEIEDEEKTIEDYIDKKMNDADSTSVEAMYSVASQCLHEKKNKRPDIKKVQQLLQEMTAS

[18] = biological target: Phosphatidylinositol 4,5-bisphosphate 3-kinase catalytic subunit alpha isoform (Homo sapiens, UniProt P42336); experiment: Inhibition of PI3Kalpha (unknown origin)
[19] = biological target: Mitogen-activated protein kinase 10 (Homo sapiens, UniProt P53779); experiment: Inhibition of JNK3 (unknown origin)
Chain of Mitogen-activated protein kinase 10 (P53779 whole entry): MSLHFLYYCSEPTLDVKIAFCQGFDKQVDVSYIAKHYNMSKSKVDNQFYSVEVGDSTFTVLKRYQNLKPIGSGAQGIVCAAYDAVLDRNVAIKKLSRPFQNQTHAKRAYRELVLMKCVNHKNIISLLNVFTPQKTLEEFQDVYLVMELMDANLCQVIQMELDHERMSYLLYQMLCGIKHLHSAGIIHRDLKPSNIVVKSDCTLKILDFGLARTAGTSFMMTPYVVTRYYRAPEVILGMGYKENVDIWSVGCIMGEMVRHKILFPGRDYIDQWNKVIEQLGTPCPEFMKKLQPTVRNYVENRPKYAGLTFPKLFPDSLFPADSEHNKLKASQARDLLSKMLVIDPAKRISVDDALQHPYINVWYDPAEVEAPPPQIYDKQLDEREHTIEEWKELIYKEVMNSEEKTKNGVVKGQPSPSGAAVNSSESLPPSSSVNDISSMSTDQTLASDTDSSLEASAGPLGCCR

Chain of Phosphatidylinositol 4,5-bisphosphate 3-kinase catalytic subunit beta isoform (P42338 whole entry, canonical isoform): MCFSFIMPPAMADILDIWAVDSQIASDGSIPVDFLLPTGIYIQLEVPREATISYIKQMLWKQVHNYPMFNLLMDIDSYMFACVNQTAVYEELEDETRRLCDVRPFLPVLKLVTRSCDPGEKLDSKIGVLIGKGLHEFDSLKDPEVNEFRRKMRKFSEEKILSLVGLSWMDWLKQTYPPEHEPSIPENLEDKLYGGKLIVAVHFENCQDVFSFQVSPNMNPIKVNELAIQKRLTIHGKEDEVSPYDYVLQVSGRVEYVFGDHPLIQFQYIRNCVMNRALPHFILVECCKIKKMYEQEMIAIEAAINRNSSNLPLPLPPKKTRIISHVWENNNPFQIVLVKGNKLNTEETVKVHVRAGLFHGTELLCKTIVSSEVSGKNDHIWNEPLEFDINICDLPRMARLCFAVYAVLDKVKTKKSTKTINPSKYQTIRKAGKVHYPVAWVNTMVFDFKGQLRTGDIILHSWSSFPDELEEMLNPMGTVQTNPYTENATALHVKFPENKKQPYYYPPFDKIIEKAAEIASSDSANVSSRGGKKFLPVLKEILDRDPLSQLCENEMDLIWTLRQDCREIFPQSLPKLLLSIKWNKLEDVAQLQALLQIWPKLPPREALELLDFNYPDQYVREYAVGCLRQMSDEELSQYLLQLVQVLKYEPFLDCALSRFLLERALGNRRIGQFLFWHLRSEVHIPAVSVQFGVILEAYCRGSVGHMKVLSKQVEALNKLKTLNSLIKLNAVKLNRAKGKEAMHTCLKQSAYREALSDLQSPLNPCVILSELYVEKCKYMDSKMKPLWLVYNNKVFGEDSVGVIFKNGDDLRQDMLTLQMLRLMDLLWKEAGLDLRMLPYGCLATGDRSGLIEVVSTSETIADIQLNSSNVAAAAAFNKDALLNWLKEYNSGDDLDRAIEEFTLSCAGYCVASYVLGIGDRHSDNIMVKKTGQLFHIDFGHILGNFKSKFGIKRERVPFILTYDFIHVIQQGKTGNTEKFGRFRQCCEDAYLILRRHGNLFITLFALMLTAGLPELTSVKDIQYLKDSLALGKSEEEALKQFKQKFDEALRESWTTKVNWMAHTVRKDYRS
Chain of Phosphatidylinositol 4,5-bisphosphate 3-kinase catalytic subunit alpha isoform (P42336 whole entry, canonical isoform): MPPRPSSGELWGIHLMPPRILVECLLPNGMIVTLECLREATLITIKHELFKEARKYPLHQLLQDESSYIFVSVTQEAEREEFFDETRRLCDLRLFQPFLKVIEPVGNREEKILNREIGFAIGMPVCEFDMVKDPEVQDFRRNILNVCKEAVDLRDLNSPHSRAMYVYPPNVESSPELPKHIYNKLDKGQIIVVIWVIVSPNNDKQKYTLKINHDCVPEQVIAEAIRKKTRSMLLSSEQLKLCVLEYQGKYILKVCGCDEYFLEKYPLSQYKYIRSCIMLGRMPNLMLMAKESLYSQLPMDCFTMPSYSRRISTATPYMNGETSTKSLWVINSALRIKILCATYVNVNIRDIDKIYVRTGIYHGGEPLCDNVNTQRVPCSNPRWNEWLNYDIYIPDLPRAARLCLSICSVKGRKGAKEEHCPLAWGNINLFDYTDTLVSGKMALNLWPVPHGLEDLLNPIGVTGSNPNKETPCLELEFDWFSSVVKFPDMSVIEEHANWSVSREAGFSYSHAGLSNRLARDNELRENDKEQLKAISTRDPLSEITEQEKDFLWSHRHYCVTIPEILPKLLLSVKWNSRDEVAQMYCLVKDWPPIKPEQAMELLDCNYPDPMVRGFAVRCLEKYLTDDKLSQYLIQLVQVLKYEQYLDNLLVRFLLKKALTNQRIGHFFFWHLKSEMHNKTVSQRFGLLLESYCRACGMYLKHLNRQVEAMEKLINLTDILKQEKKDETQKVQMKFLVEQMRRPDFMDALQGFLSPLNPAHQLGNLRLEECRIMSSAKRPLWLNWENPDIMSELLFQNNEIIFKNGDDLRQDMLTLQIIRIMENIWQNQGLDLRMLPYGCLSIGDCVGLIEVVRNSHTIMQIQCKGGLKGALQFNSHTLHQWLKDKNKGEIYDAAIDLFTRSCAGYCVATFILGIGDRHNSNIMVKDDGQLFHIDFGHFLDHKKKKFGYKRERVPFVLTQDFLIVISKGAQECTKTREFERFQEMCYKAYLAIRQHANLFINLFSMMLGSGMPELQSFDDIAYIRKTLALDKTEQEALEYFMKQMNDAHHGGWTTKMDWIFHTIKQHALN
Chain of Vascular endothelial growth factor receptor 2 (P35968 whole entry): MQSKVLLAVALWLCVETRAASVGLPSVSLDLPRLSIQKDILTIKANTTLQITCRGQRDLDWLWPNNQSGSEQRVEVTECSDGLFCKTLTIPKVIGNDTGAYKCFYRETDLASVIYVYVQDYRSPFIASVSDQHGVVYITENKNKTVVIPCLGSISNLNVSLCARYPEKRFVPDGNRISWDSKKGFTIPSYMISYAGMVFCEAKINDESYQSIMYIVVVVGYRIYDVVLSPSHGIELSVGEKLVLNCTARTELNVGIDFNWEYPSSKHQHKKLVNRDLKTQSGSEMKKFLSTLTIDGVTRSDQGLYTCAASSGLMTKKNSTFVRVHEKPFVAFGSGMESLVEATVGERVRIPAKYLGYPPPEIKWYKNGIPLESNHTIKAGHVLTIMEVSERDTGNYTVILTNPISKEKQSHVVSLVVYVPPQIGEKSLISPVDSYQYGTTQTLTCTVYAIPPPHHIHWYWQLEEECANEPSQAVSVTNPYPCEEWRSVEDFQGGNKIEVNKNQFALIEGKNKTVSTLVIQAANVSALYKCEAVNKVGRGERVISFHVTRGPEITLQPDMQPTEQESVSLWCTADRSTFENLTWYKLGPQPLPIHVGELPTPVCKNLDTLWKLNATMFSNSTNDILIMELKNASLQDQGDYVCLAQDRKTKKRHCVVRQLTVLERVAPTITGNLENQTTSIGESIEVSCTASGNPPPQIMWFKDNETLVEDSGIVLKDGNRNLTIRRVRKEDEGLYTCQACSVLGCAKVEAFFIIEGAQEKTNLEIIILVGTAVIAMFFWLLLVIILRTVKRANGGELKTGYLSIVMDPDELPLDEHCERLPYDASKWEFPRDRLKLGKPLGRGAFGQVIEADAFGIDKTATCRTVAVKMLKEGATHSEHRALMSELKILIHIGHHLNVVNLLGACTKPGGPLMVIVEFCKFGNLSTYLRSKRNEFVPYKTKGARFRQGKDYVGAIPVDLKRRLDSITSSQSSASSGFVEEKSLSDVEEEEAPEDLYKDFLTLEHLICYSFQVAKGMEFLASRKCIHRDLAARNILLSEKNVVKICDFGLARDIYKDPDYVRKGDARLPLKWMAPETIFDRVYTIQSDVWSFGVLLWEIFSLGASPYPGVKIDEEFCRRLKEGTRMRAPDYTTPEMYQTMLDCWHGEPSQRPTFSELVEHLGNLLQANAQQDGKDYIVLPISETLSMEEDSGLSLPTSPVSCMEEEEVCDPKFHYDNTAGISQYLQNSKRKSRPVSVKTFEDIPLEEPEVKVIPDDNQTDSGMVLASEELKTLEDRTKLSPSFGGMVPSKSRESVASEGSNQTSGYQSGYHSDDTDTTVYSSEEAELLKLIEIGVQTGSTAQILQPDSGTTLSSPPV
Chain of Proto-oncogene tyrosine-protein kinase Src (P12931 2-536 limits assumed): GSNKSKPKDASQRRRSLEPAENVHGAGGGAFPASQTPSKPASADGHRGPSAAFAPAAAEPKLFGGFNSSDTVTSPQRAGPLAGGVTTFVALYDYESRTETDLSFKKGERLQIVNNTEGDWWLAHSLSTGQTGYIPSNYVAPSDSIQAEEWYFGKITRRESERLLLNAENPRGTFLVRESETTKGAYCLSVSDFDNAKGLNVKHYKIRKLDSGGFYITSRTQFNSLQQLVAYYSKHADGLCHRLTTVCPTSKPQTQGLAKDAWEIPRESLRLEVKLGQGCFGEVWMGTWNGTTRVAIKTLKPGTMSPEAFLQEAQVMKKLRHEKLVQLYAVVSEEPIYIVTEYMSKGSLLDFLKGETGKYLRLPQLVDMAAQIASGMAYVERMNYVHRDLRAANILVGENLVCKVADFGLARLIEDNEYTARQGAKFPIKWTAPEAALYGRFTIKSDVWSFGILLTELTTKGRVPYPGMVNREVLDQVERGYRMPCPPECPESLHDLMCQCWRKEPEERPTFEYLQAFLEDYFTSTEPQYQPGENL
Chain of Serine/threonine-protein kinase PLK1 (P53350 whole entry): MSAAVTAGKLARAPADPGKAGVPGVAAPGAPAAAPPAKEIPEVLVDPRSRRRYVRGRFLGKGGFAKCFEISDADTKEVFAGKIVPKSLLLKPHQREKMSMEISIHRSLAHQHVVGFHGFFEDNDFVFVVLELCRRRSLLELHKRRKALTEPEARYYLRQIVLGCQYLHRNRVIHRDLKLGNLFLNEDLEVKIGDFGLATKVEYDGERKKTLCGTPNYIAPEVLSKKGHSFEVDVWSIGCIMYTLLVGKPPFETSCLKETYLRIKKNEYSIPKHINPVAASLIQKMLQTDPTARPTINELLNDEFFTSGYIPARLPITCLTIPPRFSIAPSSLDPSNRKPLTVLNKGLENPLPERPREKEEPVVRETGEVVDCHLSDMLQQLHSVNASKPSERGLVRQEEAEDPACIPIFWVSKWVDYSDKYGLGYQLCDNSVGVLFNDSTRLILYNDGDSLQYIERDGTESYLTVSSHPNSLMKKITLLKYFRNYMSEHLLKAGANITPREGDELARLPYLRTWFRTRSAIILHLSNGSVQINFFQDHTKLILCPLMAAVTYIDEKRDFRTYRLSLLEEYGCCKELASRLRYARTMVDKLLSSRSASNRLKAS

| SMILES | Ki [1] [µM] | Ki [2] [µM] | Ki [3] [µM] | Ki [4] [µM] | Ki [5] [µM] | Ki [6] [µM] | Ki [7] [µM] | Ki [8] [µM] | Ki [9] [µM] | Ki [10] [µM] | EC50 (Influenza A virus [11]) [µM] | EC99 (Influenza A virus [11]) [µM] | IC50 (Influenza A virus [12]) [µM] | Ki [13] [µM] | Ki [14] [µM] | Ki [15] [µM] | Ki [16] [µM] | Ki [17] [µM] | Ki [18] [µM] | Ki [19] [µM] |
| --- | --- | --- | --- | --- | --- | --- | --- | --- | --- | --- | --- | --- | --- | --- | --- | --- | --- | --- | --- | --- |
| NS(=O)(=O)[C@H]1C2CCC(CC2)[C@@H]1Nc1nc(-c2c[nH]c3ncc(F)cc23)ncc1F (mixture of isomers) | 0.84 | > 4 | 1.9 | > 4 | > 4 | 1.1 | 3.1 | 2.1 | 0.49 | > 4 | 0.006 | 0.064 | 0.006 | 0.98 | 1.9 | 1.2 | 0.085 | > 4 | > 4 | > 4 |
| OCC(O)[C@H]1C2CCC(CC2)[C@@H]1Nc1nc(-c2c[nH]c3ncc(F)cc23)ncc1F (mixture of isomers) | 0.39 | > 4 | 1.6 | 2.5 | > 4 | 0.71 | 3.5 | 0.51 | 0.23 | 3.4 | 0.041 | 0.18 | 0.068 | 1.5 | 2.4 | 0.16 | 0.078 | 2.7 | 2.6 | > 4 |
| Oc1cc([C@H]2C3CCC(CC3)[C@@H]2Nc2nc(-c3c[nH]c4ncc(F)cc34)ncc2F)[nH]n1 (mixture of isomers) | > 4 | > 4 | > 4 | > 4 | > 4 | > 4 | > 4 | 1.7 | > 4 | > 4 | 0.14 | 0.76 | 0.16 | > 4 | > 4 | 4 | 1.2 | > 4 | > 4 | > 4 |
| CNC(=O)[C@H]1C2CCC(CC2)[C@@H]1Nc1nc(-c2c[nH]c3ncc(F)cc23)ncc1F (mixture of isomers) | 1.1 | > 4 | > 4 | > 4 | > 4 | > 4 | 2.5 | > 4 | > 4 | > 4 | 0.035 | 0.31 | 0.014 | > 4 | > 4 | 1.4 | 0.23 | > 4 | > 4 | > 4 |
| CC(O)[C@H]1C2CCC(CC2)[C@@H]1Nc1nc(-c2c[nH]c3ncc(F)cc23)ncc1F (mixture of isomers) | 0.24 | > 4 | > 4 | > 4 | 1.2 | 0.78 | 0.97 | 1 | > 4 | > 4 | 0.49 | > 3.1 | 0.31 | 0.31 | 2 | 0.15 | 0.066 | 3.3 | > 4 | > 4 |
| Cc1noc([C@H]2C3CCC(CC3)[C@@H]2Nc2nc(-c3c[nH]c4ncc(F)cc34)ncc2F)n1 (mixture of isomers) | > 4 | > 4 | 2.5 | 2.3 | > 4 | 1.4 | 2.4 | > 4 | 1.1 | > 4 | 0.12 | 1.2 | 0.21 | > 4 | > 4 | 0.97 | 0.98 | > 4 | > 4 | > 4 |
| Cc1nnc([C@H]2C3CCC(CC3)[C@@H]2Nc2nc(-c3c[nH]c4ncc(F)cc34)ncc2F)o1 (mixture of isomers) | > 4 | > 4 | 1.2 | > 4 | > 4 | 2.8 | > 4 | > 4 | > 4 | > 4 | 0.17 | 1.9 | 0.13 | > 4 | > 4 | 1.8 | 1.1 | > 4 | > 4 | > 4 |
| CS(=O)(=O)[C@H]1C2CCC(CC2)[C@@H]1Nc1nc(-c2c[nH]c3ncc(F)cc23)ncc1F (mixture of isomers) | 0.74 | > 4 | 3.3 | > 4 | > 4 | 1.2 | 3.1 | > 4 | 1.5 | > 4 | 0.002 | 2.2 | 0.23 | 2.7 | 1.5 | 0.84 | 0.077 | > 4 | > 4 | > 4 |
